Reference: patent US11707062B2, “Formulation of stearyl alcohol” (PRO FARM GROUP, INC., priority 2017, dated 2023)

Experiments:
[1] = Percent light transmittance by spectrophotometer; assay type: physicochemical; conditions: depending on the concentration of material applied
Procedure: FIG. 8 denotes percent light transmission (% T) of wavelengths between 200 and 750 nm. UV-B radiation occurs at 280-315 nm (dashed green lines), while photosynthetically active radiation occurs between 400-700 nm (solid green lines). The rows of symbols correspond to 12 mL/L concentrations of formulated stearyl alcohol (triangles) and two alternate formulations (squares, diamonds). Water (circles) results in 100% light transmittance. To test the hypothesis that stearyl alcohol reduces transmission of light radiation, particularly within the UV-B spectrum, percent (%) transmittance were measured using a spectrophotometer. stearyl alcohol was diluted to 1/100th of the field application rate (6 mL/L active ingredient) for both visible and non-visible UV light spectra. Visible light spectral analysis was conducted using a 96 well plate while UV transparent cuvettes and 96 well plates were utilized to analyze the percent light transmittance at the UV spectrum. For all spectrophotometer light transmittance screenings, both a water reference and plate blank were used to calibrate the ratio of light energy transmitted through the formulation samples to the energy transmitted through the reference blank. Treatments were replicated three times.

soybean leaves = assay: Leaf temperature and gas exchange of attached soybean leaves in a field; assay type: in vivo; conditions: 1% v/v DI water solution on upper leaf surface; SE±0.31; P-value<0.02, paired t-test
Description: FIG. 9 denotes a comparison of the temperature depression caused by stearyl alcohol application to leaves. Points represent temperatures measured at 9 time intervals on four pairs of leaves. FIG. 10 denotes a comparison of photosynthetic capacity of treated leaves, control leaves and leaves prior to stearyl alcohol application. Photosynthetic capacity variation is interpreted as a treatment having higher/lower photosynthesis values than the control for the same stomatal conductance To test the hypothesis that stearyl alcohol reduces internal leaf temperatures while not adversely affecting photosynthesis, stearyl alcohol was applied to eight attached soybean leaves selected from plants growing in a field. The leaves were spaced in blocks so that two leaves could be compared to each other as control/treatment pairs. The leaves were placed in fishing line, wood and metal holders that restrained the leaves in an exposed and horizontal orientation (to prevent leaf orientation changes affecting the leaf energy balance and temperature). Leaf temperature was measured with an IR thermometer three times before and six times after application of a 1% v/v DI water solution of stearyl alcohol to the upper leaf surface, applied using a household spray bottle. Full coverage of the leaf surface was achieved and excess water shaken off. Leaves were dry within half an hour. […]

tomato plants = assay: Controlled lab bioassay of transpiration under moderate heat stress; assay type: in vivo
Procedure: FIG. 11 denotes mean transpiration rates of tomato plants treated with stearyl alcohol at 72 hours after application. Bars represent standard errors. A controlled lab bioassay was run to evaluate the ability of stearyl alcohol to decrease transpiration of tomato plants under moderate heat stress. stearyl alcohol was applied at a 6 mL/L concentration in water to five tomato plants at the 6-8 leaf stage growing in 8.9 cm square pots, using a research track sprayer. Sombrero, a commercially available calcium carbonate plant sunscreen product, was applied as a positive control and deionized water as a negative control. The application rate was equivalent to 150 liters of diluted product per acre. After sealing pots with plastic bags to prevent water loss through evaporation from the soil surface and measuring total pot and plant weight, the plants were placed in randomized complete blocks in a growth chamber set to 26° C. with 50% relative humidity, x 3000 μW/cm2 illumination for 14 hours per day. Sealed pots and plants were again weighed at 24, 48 and 72 hours after application. Differences in weight were attributed to water loss through transpiration. Plant mass was then plotted against time, and the slope of the linear regression was taken to be the rate of water loss in Average surface area of the leaves (cm2) was calculated using a digital leaf area scanner. Mean transpiration rate was then calculated as: Rate=Water Loss Rate (μg/sec)/Total Leaf Area (cm2).

[2] = tested on: wine (Merlot) and table (Princess) grape varieties; assay: Solar radiation damage in Chilean vineyards; assay type: in vivo; conditions: 3, 6 or 9 mL/L in 100 L of water; at harvest
Description: FIG. 13 denotes number of sun-damaged bunches of Merlot grape. Bars represent standard error for total number of damaged bunches. Letters are the same for each category of damage and represent significant differences according to a Tukey test for separation of means with α=0.05.
FIG. 14 denotes number of sun-damaged bunches of Princesa table grape. Bars represent standard error for number of damaged bunches. Letters represent significant differences in number of damaged bunches according to a Tukey test for separation of means with α=0.05.
To evaluate for protection from excess or harmful solar radiation, stearyl alcohol was applied by Duarte and Associates in established Chilean vineyards planted with wine (Merlot) and table (Princess) grape varieties. Plants were treated in 2014 with 3, 6 or 9 mL/L in 100 L of water when berries reached 11 mm in diameter and at two week intervals over the subsequent six weeks. Five contiguous vines were sprayed per treatment; treatments were replicated 3 times and arranged in a random complete block design. At harvest, bunches were counted per plant, yields assessed, sugar content measured and solar radiation damage rated.

almond = assay: Almond orchard field trial, yield

reductions of light in the photosynthetically active radiation spectrum ([1]; 400-700 nm): 10-15%
reductions of transmitted UV-B radiation ([1]; UV-B 280-315 nm): 20-50%
SMILES: CCCCCCCCCCCCCCCCCCO [stearyl alcohol]
apparent depression in leaf temperatures after application (soybean leaves): 1.5 degree C.
mean transpiration rate (tomato plants; 6 mL/L stearyl alcohol, 26° C., 50% relative humidity, up to 72 hours after application, untreated control 6.68): 5.33 μg/cm2/sec
average reductions in leaf temperature (tomato plants; tomato plants, growth chamber 26° C.): 1.50 (±0.35) ° C.
reductions in transpiration (tomato plants; vs untreated control): about 20%
damaged bunches, table grape (Princess) [2]: fewer damaged bunches
damaged bunches, wine grape (Merlot) [2]: fewer damaged bunches
crop safety in pre-harvest field assessments (almond; almond orchard, six assessment dates): confirmed the crop safety
almond yields (almond; stearyl alcohol 6 ml/L three applications, Surround 50 lbs per acre, untreated 2.8 tons/A): 3.2 tons/A
